The values that follow come from PMC4457528, “Identification of Novel Small Molecule Inhibitors of Oncogenic RET Kinase” (PLoS ONE, 2015).

One experiment addresses T1, wt RET (Homo sapiens, UniProt P07949).
T1 construct: purchased Invitrogen (SelectScreen service)
The experiment in a line: Invitrogen SelectScreen in vitro kinase assay, wt RET. The experiment is classed as biochemical. As to conditions: read-out: in vitro IC50 dose: RET. From the text:
Fig 2 ALW-II-41-27, HG-6-63-01 and XMD15-44 chemical structure. A) Chemical structure of the studied compounds: red colour indicates the “tail”, black colour indicates “linker”, and pink colour indicates the “head” part in the binding. B) Modelling of ALW-II-41-27 (left), XMD15-44 (middle) and HG-6-63-01(right) binding to the DFG-out conformation of RET.
Though more rarely than C634 and M918 mutations, other mutations targeting RET residues in the tyrosine kinase domain can cause familial or sporadic MTC [1, 2]. […] Of note, RET A883 residue is located in the VI Hanks domain adjacent to RET activation loop and it corresponds to G372 residue in ABL kinase whose mutation has been isolated in imatinib-resistant patients.

The subject of another experiment is RAT RET/M918T cells. The experiment in a line: Growth curves, RAT1 cells transformed by RET/M918T. The experiment is classed as cell-based. Conditions: low serum, last day values, 95% CI in brackets, read-out: Growth inhibition IC50 dose: RAT RET/M918T. The procedure:
(§1) To compare cell growth, we performed unpaired Student’s t test using the Instat software program (Graphpad Software Inc). P values were two-sided, and differences were considered statistically significant at P <.02. IC50 doses were calculated through a curve fitting analysis from last day values using the PRISM software program (Graphpad Software Inc).

The test system of a further experiment is RAT1 cells. The experiment in a line: Growth curves, parental RAT1 cells. The experiment is classed as cell-based, rat. Conditions: low serum. As to the method: as §1
The next experiment has as its system MZ-CRC-1 cells. The experiment in a line: Growth curves, MZ-CRC-1 medullary thyroid carcinoma cells (RET/M918T). The class given is cell-based. Conditions: Homo sapiens, 10% serum, 95% CI in brackets, read-out: Growth inhibition IC50 dose MZ-CRC-1. The procedure:
(§2) TT human cell line was obtained in 2002 from ATCC and authenticated by RET genotyping; it was derived from a MTC and harbors a cysteine 634 to tryptophan (C634W) RET mutation. TT cells were grown in RPMI 1640 supplemented with 20% fetal calf serum (GIBCO). MZ-CRC-1 human cells were kindly provided in 2009 by Robert F. Gagel (MD Anderson, Houston, TX) and authenticated by RET genotyping. […] Nthy-ori 3–1, a human thyroid follicular epithelial cell line immortalized by the SV40 large T gene, was obtained from European Collection of Cell Cultures (ECACC) (Wiltshire, UK) in 2010.
as §1

The next experiment relates to TPC-1 cells. The experiment can be described thus: Growth curves, TPC-1 papillary thyroid carcinoma cells (RET/PTC1). The class given is cell-based. Conditions: Homo sapiens, TPC1; 2% serum; 95% CI in brackets; read-out: Growth inhibition IC50 dose TPC-1. As to the method: as §2, §1
Experiment [1] has as its system SHC and MAPK phosphorylation in parental RAT1 cells. The experiment can be described thus: Western blot of SHC and MAPK phosphorylation in parental RAT1 cells. The class given is cell-based, rat. Conditions: 2 hr. As to the method:
(§3) Protein lysates were prepared according to standard procedures. Briefly, cells were lysed in a buffer containing 50 mM N-2-hydroxyethylpiperazine-N'-2-ethanesulfonic acid (HEPES; pH 7.5), 1% (vol/vol) Triton X-100, 150 mM NaCl, 5 mM EGTA, 50 mM NaF, 20 mM sodium pyrophosphate, 1 mM sodium vanadate, 2 mM phenylmethylsulphonyl fluoride (PMSF) and 1 μg/ml aprotinin. Lysates were clarified by centrifugation at 10,000 Xg for 15 min. […] Immune complexes were detected with the enhanced chemiluminescence kit (Amersham Pharmacia Biotech, Little Chalfort, UK). Signal intensity was analyzed at the Phosphorimager (Typhoon 8600, Amersham Pharmacia Biotech) interfaced with the ImageQuant software. Anti-phospho-SHC (#07206), that recognizes SHC proteins when phosphorylated on Y317 was from Merck Millipore (Darmstadt, Germany). Anti-MAPK (#4695) and anti-phospho-MAPK (#4370), specific for p44/42MAPK (ERK1/2) phosphorylated on Thr202/Tyr204, anti-VEGFRII (#2479) and anti-phospho-VEGFRII (#2478), that recognizes VEGF Receptor 2 when phosphorylated on Y1175, were from Cell Signaling (Beverly, MA).
(§4) Anti-SHC (#H-108) was from Santa Cruz Biotechnology (Santa Cruz, CA). Anti-RET is a polyclonal antibody raised against the tyrosine kinase protein fragment of human RET [28]. Anti-phospho905 is a phospho-specific polyclonal antibody recognizing RET proteins phosphorylated at Y905 and anti-phospho1062 is a phospho-specific polyclonal antibody recognizing RET proteins phosphorylated at Y1062 [13]. Secondary antibodies coupled to horseradish peroxidase were from Santa Cruz Biotechnology.
EC: extracellular domain; IC: intracellular domain; TM: transmembrane domain.
(A western blot detects proteins with antibodies after separation by electrophoresis.)

Experiment [2] deals with SHC and MAPK phosphorylation in Nthy-ori-3-1 cells. The experiment in a line: Western blot of SHC and MAPK phosphorylation in Nthy-ori-3-1 cells. The class given is cell-based, human. Conditions: 10, 100 and 1,000 nM, 2 hr. As to the method:
as §3, §4
We selected TT and MZ-CRC-1 cells, that derive from human MTC harbouring the RET/C634W or RET/M918T mutation, respectively, and TPC1 cells, that derive from human PTC bearing the RET/PTC1 (CCDC6-RET) rearrangement. […] Concentrations as low at 10 nM of all three drugs inhibited RET autophosphorylation as well as SHC and MAPK activation by 20–40% of control (Fig 4A–4C). […]

Experiment [3] concerns the target T2, KinomeScan kinase panel (Homo sapiens, UniProt P49674).
T2 construct: purchased DiscoveRx (KinomeScan)
The experiment can be described thus: KinomeScan kinase panel, single concentration 10 µM. The class given is binding. Conditions: CSNK1E, 10 µM; read-out: score (%).

The target in experiment [4] is T3, KinomeScan kinase panel (Homo sapiens, UniProt Q9UKE5).
T3 construct: purchased DiscoveRx (KinomeScan)
Described as above. The class given is binding. Conditions: 10 µM, read-out: score (%).

In the next experiment the test system is RET/C634Y. Conditions: 10 nM, 2 hr, NIH3T3, Western blotting, data not shown.
In another experiment the target is RET/M918T (Homo sapiens, UniProt P07949, M918T). The experiment can be described thus: cell-based. Conditions: NIH3T3, read-out: inhibition of RET/M918T protein.

Read-outs that look alike come from different tables or passages of the source.

T2 sequence (P49674 whole entry): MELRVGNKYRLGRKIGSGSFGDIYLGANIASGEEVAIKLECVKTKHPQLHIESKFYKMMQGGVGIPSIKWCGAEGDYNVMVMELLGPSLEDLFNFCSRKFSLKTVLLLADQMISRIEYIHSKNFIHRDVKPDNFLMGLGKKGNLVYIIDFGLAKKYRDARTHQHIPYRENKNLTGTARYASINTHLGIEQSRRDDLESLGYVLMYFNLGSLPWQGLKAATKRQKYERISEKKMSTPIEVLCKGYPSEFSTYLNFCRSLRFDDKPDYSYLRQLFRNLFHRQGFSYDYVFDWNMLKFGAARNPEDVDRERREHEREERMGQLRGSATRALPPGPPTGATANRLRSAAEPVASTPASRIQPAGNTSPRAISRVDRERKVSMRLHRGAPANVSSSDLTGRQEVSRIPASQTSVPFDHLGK
T1 sequence (P07949 29-1114): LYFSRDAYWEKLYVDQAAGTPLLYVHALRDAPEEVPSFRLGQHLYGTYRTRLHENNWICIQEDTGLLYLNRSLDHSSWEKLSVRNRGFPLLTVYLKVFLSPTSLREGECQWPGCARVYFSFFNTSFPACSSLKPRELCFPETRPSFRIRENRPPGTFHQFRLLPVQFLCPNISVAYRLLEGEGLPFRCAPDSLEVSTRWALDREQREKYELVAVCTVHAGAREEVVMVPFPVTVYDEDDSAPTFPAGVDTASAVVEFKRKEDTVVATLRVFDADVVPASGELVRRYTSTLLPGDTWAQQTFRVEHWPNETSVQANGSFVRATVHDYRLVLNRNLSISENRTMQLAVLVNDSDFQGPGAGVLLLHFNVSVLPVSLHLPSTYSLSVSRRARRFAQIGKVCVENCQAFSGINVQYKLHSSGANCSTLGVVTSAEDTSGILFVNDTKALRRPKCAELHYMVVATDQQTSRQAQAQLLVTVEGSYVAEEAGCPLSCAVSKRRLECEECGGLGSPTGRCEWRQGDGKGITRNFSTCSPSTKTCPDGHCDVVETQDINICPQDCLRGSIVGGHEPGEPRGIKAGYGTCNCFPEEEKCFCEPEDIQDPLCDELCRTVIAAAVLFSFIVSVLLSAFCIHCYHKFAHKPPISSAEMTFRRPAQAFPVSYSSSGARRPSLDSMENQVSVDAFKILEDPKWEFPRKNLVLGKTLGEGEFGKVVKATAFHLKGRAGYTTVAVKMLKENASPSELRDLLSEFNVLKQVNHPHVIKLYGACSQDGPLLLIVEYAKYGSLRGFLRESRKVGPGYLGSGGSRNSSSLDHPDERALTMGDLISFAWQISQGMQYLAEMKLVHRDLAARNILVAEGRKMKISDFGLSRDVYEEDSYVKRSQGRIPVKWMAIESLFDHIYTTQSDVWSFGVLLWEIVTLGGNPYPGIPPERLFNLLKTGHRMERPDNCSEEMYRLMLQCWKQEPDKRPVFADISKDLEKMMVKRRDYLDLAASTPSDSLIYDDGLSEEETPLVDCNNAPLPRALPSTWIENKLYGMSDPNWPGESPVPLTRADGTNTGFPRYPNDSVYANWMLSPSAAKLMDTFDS
T3 sequence (Q9UKE5 whole entry): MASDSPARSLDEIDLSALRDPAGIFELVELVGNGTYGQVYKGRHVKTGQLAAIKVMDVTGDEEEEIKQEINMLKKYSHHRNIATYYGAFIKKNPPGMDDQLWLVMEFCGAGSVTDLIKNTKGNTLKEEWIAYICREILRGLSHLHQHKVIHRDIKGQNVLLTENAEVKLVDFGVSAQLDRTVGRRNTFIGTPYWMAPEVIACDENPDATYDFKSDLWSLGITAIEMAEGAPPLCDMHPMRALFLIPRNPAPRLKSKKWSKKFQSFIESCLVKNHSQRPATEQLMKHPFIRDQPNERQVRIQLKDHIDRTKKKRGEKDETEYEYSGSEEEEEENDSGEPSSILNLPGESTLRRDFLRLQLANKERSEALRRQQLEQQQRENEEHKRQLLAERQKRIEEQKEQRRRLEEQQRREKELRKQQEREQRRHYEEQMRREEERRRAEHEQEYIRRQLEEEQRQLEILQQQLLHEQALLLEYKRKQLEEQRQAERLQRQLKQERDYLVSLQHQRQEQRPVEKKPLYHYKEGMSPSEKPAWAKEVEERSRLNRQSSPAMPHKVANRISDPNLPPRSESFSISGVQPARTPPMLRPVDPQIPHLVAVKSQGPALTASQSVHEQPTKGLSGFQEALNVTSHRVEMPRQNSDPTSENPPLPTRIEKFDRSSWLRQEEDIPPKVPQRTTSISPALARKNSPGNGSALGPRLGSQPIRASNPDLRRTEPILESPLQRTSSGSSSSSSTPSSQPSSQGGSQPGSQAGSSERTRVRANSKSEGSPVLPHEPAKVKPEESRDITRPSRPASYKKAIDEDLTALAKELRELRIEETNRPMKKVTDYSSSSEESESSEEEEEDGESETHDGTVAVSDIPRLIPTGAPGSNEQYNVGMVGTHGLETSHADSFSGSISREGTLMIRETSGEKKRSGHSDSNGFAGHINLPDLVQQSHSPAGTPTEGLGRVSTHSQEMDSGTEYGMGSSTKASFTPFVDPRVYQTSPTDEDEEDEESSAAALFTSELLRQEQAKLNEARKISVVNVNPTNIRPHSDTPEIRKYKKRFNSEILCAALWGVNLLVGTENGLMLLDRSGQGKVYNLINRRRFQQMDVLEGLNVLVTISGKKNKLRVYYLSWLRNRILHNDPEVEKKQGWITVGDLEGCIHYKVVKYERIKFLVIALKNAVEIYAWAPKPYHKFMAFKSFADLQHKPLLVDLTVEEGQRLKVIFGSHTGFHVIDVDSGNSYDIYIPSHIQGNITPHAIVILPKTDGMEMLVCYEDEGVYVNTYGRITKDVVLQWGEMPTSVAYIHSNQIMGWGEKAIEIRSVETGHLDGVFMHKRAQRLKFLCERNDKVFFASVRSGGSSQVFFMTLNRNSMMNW
Chain of RET/M918T (P07949 29-1072 isoform P07949-2 M918T limits assumed): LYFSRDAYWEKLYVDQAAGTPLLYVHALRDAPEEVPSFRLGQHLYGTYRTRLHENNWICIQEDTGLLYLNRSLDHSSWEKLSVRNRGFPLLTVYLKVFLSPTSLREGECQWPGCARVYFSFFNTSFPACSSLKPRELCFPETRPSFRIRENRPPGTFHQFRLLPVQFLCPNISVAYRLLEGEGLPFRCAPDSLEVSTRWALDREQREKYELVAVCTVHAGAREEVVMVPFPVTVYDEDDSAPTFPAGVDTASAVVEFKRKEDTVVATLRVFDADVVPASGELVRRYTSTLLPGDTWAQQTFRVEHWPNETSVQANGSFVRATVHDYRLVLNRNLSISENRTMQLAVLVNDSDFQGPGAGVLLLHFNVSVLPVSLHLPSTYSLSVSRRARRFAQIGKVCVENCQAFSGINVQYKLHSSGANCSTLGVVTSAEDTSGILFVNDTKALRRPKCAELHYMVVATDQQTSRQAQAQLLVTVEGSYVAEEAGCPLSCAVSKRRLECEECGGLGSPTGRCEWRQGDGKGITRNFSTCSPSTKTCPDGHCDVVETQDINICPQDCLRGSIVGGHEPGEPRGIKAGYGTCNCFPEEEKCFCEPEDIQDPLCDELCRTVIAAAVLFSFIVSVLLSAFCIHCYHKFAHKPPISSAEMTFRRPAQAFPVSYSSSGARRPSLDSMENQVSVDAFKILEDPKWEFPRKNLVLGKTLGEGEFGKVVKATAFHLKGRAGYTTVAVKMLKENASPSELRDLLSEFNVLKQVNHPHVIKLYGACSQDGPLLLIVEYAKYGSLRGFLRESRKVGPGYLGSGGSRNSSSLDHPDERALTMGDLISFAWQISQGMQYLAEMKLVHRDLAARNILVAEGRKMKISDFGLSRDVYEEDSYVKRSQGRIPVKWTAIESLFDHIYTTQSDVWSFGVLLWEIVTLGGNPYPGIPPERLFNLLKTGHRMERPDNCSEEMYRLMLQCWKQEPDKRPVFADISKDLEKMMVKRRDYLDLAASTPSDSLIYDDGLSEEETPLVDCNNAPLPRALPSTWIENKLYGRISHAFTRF

For `CCN1CCN(Cc2ccc(NC(=O)c3ccc(C)c(NC(=O)c4cncc(-c5cccs5)c4)c3)cc2C(F)(F)F)CC1` [ALW-II-41-27], the IC50 at wt RET is 24.7 nM; with RAT RET/M918T cells it was 56 nM; with MZ-CRC-1 cells, 2 nM; in the experiment with TPC-1 cells it was 19.7 nM. For the same compound, the “Growth inhibition IC50 dose: RAT1” value in the experiment on RAT1 cells is “Not measurable”. Moreover, the “effect on SHC and MAPK phosphorylation in parental RAT1 cells” value (“effect … in parental RAT1 cells” below) in [1] is “did not affect”. In addition, the “effect on SHC and MAPK phosphorylation in Nthy-ori-3-1 cells” value (shortened to “effect … in Nthy-ori-3-1 cells”) in experiment [2] is reported as “did not exert any detectable effects”. For the same compound, the values for the remaining binding at 10 µM at KinomeScan kinase panel [3] and on KinomeScan kinase panel [4] (kinase TNIK) were 0.8% and 11%, respectively. Besides, the “inhibition of RET/C634Y protein” value with RET/C634Y was greater than 30%. In addition, at RET/M918T, the inhibition at 0.01 µM is greater than 30%.
Turning to `CCN1CCN(Cc2ccc(NC(=O)c3ccc(C)c(/C=C/c4cnc5[nH]ccc5c4Cl)c3)cc2C(F)(F)F)CC1` [HG-6-63-01, (E)-3-(2-(4-chloro-1H-pyrrolo[2,3-b]pyridin-5-yl)vinyl)-N-(4-((4-ethylpiperazin-1-yl)methyl)-3-(trifluoromethyl)phenyl)-4-methylbenzamide], the IC50 on wt RET came to 35.3 nM; with RAT RET/M918T cells, 16 nM; in the experiment on MZ-CRC-1 cells, 1 nM; in the experiment on TPC-1 cells, 9.8 nM. The “Growth inhibition IC50 dose: RAT1” value in the experiment on RAT1 cells was “Not measurable”. For the same compound, in experiment [1], the “effect … in parental RAT1 cells” value is on record as “did not affect”. In addition, in experiment [2], the “effect … in Nthy-ori-3-1 cells” value is on record as “did not exert any detectable effects”. Also, the remaining binding at 10 µM on KinomeScan kinase panel [3] amounted to 15%; on KinomeScan kinase panel [4] (TNIK), 13%. The “inhibition of RET/C634Y protein” value in the experiment with RET/C634Y was greater than 30%. Moreover, on RET/M918T, the inhibition at 0.01 µM was greater than 30%.
On to `CCN1CCN(Cc2ccc(NC(=O)c3ccc(C)c(C#Cc4cccnc4)c3)cc2C(F)(F)F)CC1` [XMD15-44], for which the IC50 was 14.2 nM at wt RET, 8.3 nM with RAT RET/M918T cells, 4.2 nM in the experiment with MZ-CRC-1 cells and 37.1 nM in the experiment with TPC-1 cells. Also, the “Growth inhibition IC50 dose: RAT1” value in the experiment with RAT1 cells is “Not measurable”. Also, the “effect … in parental RAT1 cells” value in [1] was “did not affect”. Moreover, the “effect … in Nthy-ori-3-1 cells” value in experiment [2] is “did not exert any detectable effects”. Also, the values for the remaining binding at 10 µM on KinomeScan kinase panel [3] and at KinomeScan kinase panel [4] (kinase TNIK) were greater than 30% and 1.8%, respectively. Besides, the “inhibition of RET/C634Y protein” value in the experiment on RET/C634Y is reported as greater than 30%. The inhibition at 0.01 µM at RET/M918T is greater than 30%.
